Assay results from patent publication US7276532B2, “Remedies for vesical hyperactivity” (Kyowa Hakko Kogyo Co., Ltd., priority 2001, dated 2007).

Tests used:
[1] = tested on: spinal cord-injured rats; assay: Inhibitory activity on detrusor hyperreflexia (cystometry test); format: in vivo, rat; conditions: average ± standard error
Experimental: The experiment was carried out according to the method of Cheng, et al. [Brain Res., Vol. 678, pp. 40-48 (1995)].
(§1) Female SD rats of 8 to 10 weeks of age (supplied by Japan SLC) were used in the test. Five to seven animals of these rats were put in each metal cage and reared by allowing them to freely take commercially available chow and water, in an animal room at room temperature between 19 and 25° C. and humidity between 30 and 70% under illumination for 12 hours (from 7:00 a.m. to 7:00 p.m.) per day.
An operation of spinal cord injury was performed in the rats. Each animal was anesthetized with diethyl ether and the skin of the back side thoracic cord part was incised. A laminectomy at the 7th to 8th thoracic vertebrae level was performed. Then, the thoracic cord at the T7-T8 segments was macroscopically cut and a section of spinal cord (about 5 mm) was removed, and the wound cavity of the removed part was filled with oxidized regenerated cellulose for hemostasis. The incised part was sutured with a surgical silk. After the spinal cord injury operation, urine was expressed manually twice per day (at 8:00-9:00 and 18:00-19:00) for about 3 weeks until autonomic micturition developed. An antibiotic (ampicillin, Sigma. Chemical Co.) was intramuscularly administered to the animals at a dose of 150 mg/kg once to twice per day for about 2 weeks.
(§2) Four to five weeks after the spinal cord injury, the rats were subjected to bladder catheterization. Under diethyl ether anesthesia, the bladder was exposed by midline incision of the abdomen. […] The bladder catheter was fixed with a surgical silk ligature and indwelled. The other end of the catheter was exposed subcutaneously from the back of the neck, plugged and then fixed to the skin with a surgical thread.
Four to six days after the bladder catheterization, a cystometry test was performed. The rats were put in a Bollman cage (Natsume Seisakusho Co., Ltd.) and a three-way cock was connected to the bladder catheter, one end of the cock was connected to a pressure transducer (Nihon Kohden Corp.) and the other end was connected to a 50-mL syringe (Terumo Corp.) arranged to an infusion pump (Harvard Apparatus, Inc.) for physiological saline infusion. The intravesical pressure signal from the pressure transducer was amplified with a strain pressure amplifier (AP-601G, Nihon Kohden Corp.) connected thereto, and was recorded on a thermal array recorder (RTA-1200, Nihon Kohden Corp.) via a polygraph system (RMP-6008, Nihon Kohden Corp.) containing the above amplifier. Sixty to ninety minutes after the completion of the preparation for the measurement, a room temperature physiological saline was infused into the bladder at a flow rate of 10 mL/h for 30 minutes, the occurence of micturition contractions was confirmed. Thirty minutes later, the infusion of physiological saline was carried out again for 30 minutes, and the intravesical pressure was measured to be used as the pre-administration value. Each of Compounds 1 to 6 was suspended in a 0.5 w/v % aqueous solution of methylcellulose at a concentration of 1 mg/mL suspension. The suspension was further diluted with a 0.5 w/v % aqueous solution of methylcellulose to prepare a suspension or solution for the administration at the intended concentration, which was then orally administered to the animals at a volume of 1 mL/kg. The period of 1, 3 and 5 hours after the dosing was used as the measuring time after the administration of the solvent or a compound tested, and the intravesical infusion of a physiological saline was carried out during a duration of 15 minutes around each measuring time (i.e. from 45 to 75 minutes, from 165 to 195 minutes and from 285 to 315 minutes after the administration of the compound).
Micturition contraction was measured as an index of the voiding function and pre-micturition contraction was measured as an index of detrusor hyperreflexia. […]

[2] = tested on: rats with bladder hypertrophy; assay: Inhibitory activity on detrusor instability (cystometry test after partial urethral obstruction); format: in vivo, rat; conditions: average ± standard error
Experimental: The experiment was carried out according to the method of Malmgren, et al. [J. Urol., Vol. 142, pp. 1134-1138 (1989)].
as §1, with “(7:00 a.m.-7:00” for “(from 7:00 a.m. to 7:00”
The rats were subjected to operation of partial urethral obstruction. Each animal was anesthetized by intraperitoneal administration of 50 mg/kg pentobarbital sodium (Dainippon Pharmaceutical Co., Ltd.), and the midline incision of the skin and muscle was made in the lower abdomen. A polyethylene tube (PE-20, Nippon Becton Dickinson Co., Ltd.) was inserted into urethra from the urethral to the bladder neck. After the proximal urethra was peeled and double-ligated, the polyethylene tube was pulled out to cause partial urethral obstruction. The incised part was-sutured with a surgical silk thread. An antibiotic (ampicillin, Sigma Chemical Co.) was intramusclarly administered to the animals at a dose of 150 mg/kg.
as §2, with “Six” for “Four to five”, “operation of the partial urethral obstruction,” for “spinal cord injury,”, “rats with bladder hypertrophy” for “rats”, “anesthesia with pentobarbital sodium,” for “diethyl ether anesthesia,”
Four to six days after the bladder catheterization, a cystometry test was performed. The rats were put in a Bollman cage (Natsume Seisakusho Co., Ltd.) and a three-way cock was connected to the bladder catheter, one end of the cock was connected to a pressure transducer (Nihon Kohden Corp.) and the other end was connected to a 50-mL syringe (Terumo Corp.) arranged to an infusion pump (Harvard Apparatus, Inc.) for physiological saline infusion. The intravesical pressure signal from the pressure transducer was amplified with a strain pressure amplifier (AP-601G, Nihon Kohden Corp.) connected thereto, and was recorded on a thermal array recorder (RTA-1200, Nihon Kohden Corp.) via a polygraph system (RMP-6008, Nihon Kohden Corp.) containing the above amplifier. Sixty to ninety minutes after the completion of the preparation for the measurement, intravesical infusion of a room temperature physiological saline at a flow rate of 10 mL/h was started and continued until the completion of the test, and the occurrence of micturition contractions and pre-micturition contractions were confirmed. The chart for 30 minutes after 3 hours from the commencement of the saline infusion was used as the values before the drug administration. Each of Compounds 1 to 3 was suspended in a 0.5 w/v % aqueous solution of methylcellulose at a concentration of 1 mg/mL. The suspension was further diluted with a 0.5 w/v % aqueous solution of methylcellulose to prepare a suspension or solution for the administration at the intended concentration. This was then orally administered to the animals at a volume of 1 mL/kg. The period of 1, 3 and 5 hours after the dosing was used as the measuring time after the administration of the solvent or a compound tested, and a duration of 15 minutes around each measuring time (45 to 75 minutes, 165 to 195 minutes and 285 to 315 minutes after the administration of the compound) was used as the measuring period.
Micturition contraction was used as an index of the voiding function and pre-micturition contraction was measure as an index of detrusor instability. […]

## COc1ccc2c(c1)CS(=O)(=O)c1cccc(NC(=O)C(C)(O)C(F)(F)F)c1C2=O (stereo not drawn) [Compound 2]
[1]; 3 mg/kg p.o., after 1 hr.
  micturition contractions (relative value, before administration = 100): 94.9 ± 14.3%
  pre-micturition contractions (relative value, before administration = 100): 55.1 ± 7.3%
[1]; 3 mg/kg p.o., after 3 hrs.
  micturition contractions (relative value, before administration = 100): 93.6 ± 16.7%
  pre-micturition contractions (relative value, before administration = 100): 80.2 ± 23.6%
[1]; 3 mg/kg p.o., after 5 hrs.
  micturition contractions (relative value, before administration = 100): 99.4 ± 9.0%
  pre-micturition contractions (relative value, before administration = 100): 66.8 ± 14.5%
[2]; 3 mg/kg p.o., after 1 hr.
  micturition contractions (relative value, before administration = 100): 104.5 ± 2.0%
  pre-micturition contractions (relative value, before administration = 100): 67.5 ± 7.9%
[2]; 3 mg/kg p.o., after 3 hrs.
  micturition contractions (relative value, before administration = 100): 101.9 ± 5.9%
  pre-micturition contractions (relative value, before administration = 100): 66.9 ± 8.5%
[2]; 3 mg/kg p.o., after 5 hrs.
  micturition contractions (relative value, before administration = 100): 100.9 ± 5.5%
  pre-micturition contractions (relative value, before administration = 100): 74.7 ± 7.6%

## CC(C)(C(=O)[O-])C(=O)Nc1cccc2c1C(=O)c1sccc1CS2(=O)=O.[Na+] [Compound 3]
[1]; 1 mg/kg p.o., after 1 hr.
  micturition contractions (relative value, before administration = 100): 109.3 ± 5.7%
  pre-micturition contractions (relative value, before administration = 100): 66.2 ± 15.8%
[1]; 1 mg/kg p.o., after 3 hrs.
  micturition contractions (relative value, before administration = 100): 109.5 ± 8.2%
  pre-micturition contractions (relative value, before administration = 100): 65.3 ± 24.9%
[1]; 1 mg/kg p.o., after 5 hrs.
  micturition contractions (relative value, before administration = 100): 111.4 ± 5.6%
  pre-micturition contractions (relative value, before administration = 100): 52.3 ± 13.7%
[2]; 10 mg/kg p.o., after 1 hr.
  micturition contractions (relative value, before administration = 100): 96.8 ± 6.3%
  pre-micturition contractions (relative value, before administration = 100): 62.4 ± 7.1%
[2]; 10 mg/kg p.o., after 3 hrs.
  micturition contractions (relative value, before administration = 100): 95.7 ± 4.7%
  pre-micturition contractions (relative value, before administration = 100): 49.1 ± 6.3%
[2]; 10 mg/kg p.o., after 5 hrs.
  micturition contractions (relative value, before administration = 100): 92.2 ± 4.6%
  pre-micturition contractions (relative value, before administration = 100): 51.8 ± 3.5%
